Series [1] concerns the target APOL1. To be noted: ASO.
Series [2] deals with SNHG14. To be noted: ASO, Human Neuronal Cell.

“And” between values parts separate entries of the source, which are not always exact repeats. Equal entries are not always repeated. After the bases stand the sugars from the 5' end (letter, count) and the backbone: PS all phosphorothioate, else s phosphorothioate and o phosphodiester by linkage. Methylation of C is not given here. e = 2'-O-(2-methoxyethyl) (MOE); l = locked nucleic acid (LNA); k = constrained ethyl (cEt); d = 2'-deoxy (DNA)

For the sequence “GAGTATTGTTTTTGTG (sugars kkddddkdkdkddddd, PS)”, the target mRNA inhibition came to 17% in series [1] (A431, 0.0156 µM); 34% in series [1] (A431, 0.0625 µM); 70% in series [1] (A431, 0.25 µM); 88% in series [1] (A431, 1 µM); 92% in series [1] (A431, 2 µM). The sequence “TTATGAAATTATTGGT (sugars kkdddddkekeddddd, PS)” displayed a target mRNA inhibition in series [1] (A431, 2 µM) of 63%. Turning to “GTGTATTTCTTGATGT (sugars kkddddekekeddddd, PS)”, the target mRNA inhibition was 36% in series [1] (A431, 0.0156 µM); 65% in series [1] (A431, 0.0625 µM); 83% in series [1] (A431, 0.25 µM); 92% in series [1] (A431, 1 µM); 94% in series [1] (A431, 2 µM). “ACGCAATGCTGACTTG (sugars kkddddkekekkdddd, PS)” came in with a target mRNA inhibition in series [1] (A431, 2 µM) of 72%. On the same count and under the same terms, under “CACATCATTGGGTTAT (sugars kkddddkekekddddd, PS)” stands 74%.

Take GGAATTATGGAATTGC (sugars k4 d9 k3, PS): the target mRNA inhibition is 55% in series [1] (A431, 0.04 µM); 74% in series [1] (A431, 0.0625 µM); 93% in series [1] (A431, 0.25 µM); 98% in series [1] (A431, 1 µM).

With “GTATTTCTTGATGTGG (sugars kkddddkekekddddd, PS)”, the target mRNA inhibition in series [1] (A431, 2 µM) came out at 75%. On the same count and under the same terms, the same measure for “GTTATATTTGATCCTC (sugars kkkddddkdkdkdddd, PS)”: 92%; for “TGGGAATTATGGAATT (sugars kkddddekekeddddd, PS)”: 78%.

The sequence “ATTCTATTAGAGGGCT (sugars k3 d4 k3 e1 d5, PS)” had a target mRNA inhibition in series [1] (A431, 2 µM) of 85%. Still for that read-out and setting: the same measure for “TATTTCTTGATGTGGT (sugars k2 d4 e4 k2 d4, PS)”: 96%; for “TTATGAAATTATTGGT (sugars k2 d4 e3 k2 d5, PS)”: 39%.

For the sequence “AAGCTTTAAACTCAGG (sugars k2 d4 e3 k2 d5, PS)”, the target mRNA inhibition is 15% in series [1] (A431, 0.0156 µM); 48% in series [1] (A431, 0.0625 µM); 76% in series [1] (A431, 0.25 µM); 92% in series [1] (A431, 1 µM); 95% in series [1] (A431, 2 µM). In series [1] (A431, 2 µM), “TGTTATATTTGATCCT (sugars kkddddkekekkdddd, PS)” yielded a target mRNA inhibition of 46%.

In series [1] (A431, 2 µM), “ACATCATTGGGTTATG (sugars kdddddkekekddddd, PS)” came in with a target mRNA inhibition of 89%. “CAGTTTTGTAAGTGCA (sugars kddddkekekeddddd, PS)” yielded a target mRNA inhibition in series [1] (A431, 2 µM) of 48%. Consider CATTCAGAATTTCCAC (sugars k4 d9 k3, PS), for which the target mRNA inhibition in series [1] (A431, 0.04 µM) was 15%; in series [1] (A431, 0.0625 µM), 56%; in series [1] (A431, 0.25 µM) it was 81%; in series [1] (A431, 1 µM), 90% and 81%. “GTATTGCCAGCTAAGG (sugars kdddddkekekddddd, PS)”: the target mRNA inhibition worked out at 29% in series [1] (A431, 0.0156 µM); 50% in series [1] (A431, 0.0625 µM); 70% in series [1] (A431, 0.25 µM); 87% in series [1] (A431, 1 µM); 93% in series [1] (A431, 2 µM). As to ACTCAAGTCAGTACAG (sugars k4 d9 k3, PS), the target mRNA inhibition was 27% in series [1] (A431, 0.0625 µM); 58% in series [1] (A431, 0.25 µM); 77% in series [1] (A431, 1 µM).

On to “CAACACATCATTGGGT (sugars k2 d4 e3 k2 d5, PS)”, for which the target mRNA inhibition in series [1] (A431, 2 µM) came to 80%. Still for that read-out and setting: under “TCTATTAGAGGGCTAG (sugars kdddddkekekddddd, PS)” stands 42%. In series [2] (7.5 µM), “GAAAATCTCAACTACCATT (sugars l3 d1 l1 d10 l4, PS)” gave a target mRNA inhibition of 57%. “CTGTATACACCATCCCA (sugars l1 d10 l1 d3 l2, PS)”: in series [2] (7.5 µM), the target mRNA inhibition came out at 54%. On to “TTTCCTATATTCTCTTA (sugars l4 d11 l2, PS)”, for which the figures for the target mRNA inhibition in series [2] (0.2 µM) and in series [2] (1 µM) were 56% and 64%, respectively. In turn, “ATCTCATGACCACCTAA (sugars ldlllddddddddldll, PS)” gave a target mRNA inhibition in series [2] (7.5 µM) of 66%. Take “TTATAGCCATTCTATCT (sugars llddlddddddldldll, PS)”: the target mRNA inhibition in series [2] (7.5 µM) was 5%. As for CATCTGCTACATATTC (sugars l4 d10 l2, PS), the target mRNA inhibition in series [2] (0.2 µM) was found to be 49%; in series [2] (1 µM), 58%. As for “TTCTGTATACACCATCC (sugars l3 d12 l2, PS)”, the target mRNA inhibition in series [2] (7.5 µM) was determined as 58%. The same measure, in the same setting: under “CAACATTATTAACCACCTTA (sugars lddddllddddddddlddll, PS)” stands 47%. Take CTAATCCTATTCCAAC (sugars l2 d10 l4, PS): the values for the target mRNA inhibition in series [2] (0.2 µM) and in series [2] (1 µM) were 33% and 49%, respectively.

The values are drawn from the OligoGym collection.
